Structures are written as SMILES.

The values that follow come from ChEMBL document CHEMBL2040737, “Synthesis and biological evaluation of novel 2-(2-arylmethylene)hydrazinyl-4-aminoquinazoline derivatives as potent antitumor agents” (Eur J Med Chem, 2012).

The subject of assay [1] is HT-29. The experiment in a line: Cytotoxicity against human HT-29 cells after 72 hrs by MTT assay. To be noted: HT-29, 72 h. Format: functional, cell-based. Background: Formazan colour is commonly taken as a measure of viable cells.
Assay [2] relates to HepG2. The experiment in a line: Cytotoxicity against human HepG2 cells after 72 hrs by MTT assay. It is filed as functional, cell-based. To be noted: HepG2, 72 h.
For assay [3], the system named is NCI-H460. In words: Cytotoxicity against human H460 cells after 72 hrs by MTT assay. Format: functional, cell-based. To be noted: NCI-H460, 72 h.
Assay [4] concerns SGC-7901. The experiment in a line: Cytotoxicity against human SGC7901 cells after 72 hrs by MTT assay. The note with it: SGC-7901, 72 h. Format: functional, cell-based.
For assay [5], the system named is HepG2. The experiment in a line: Ratio of iressa IC50 to compound IC50 for human HepG2 cells. Format: functional.
In assay [6] the test system is HT-29. The experiment in a line: Ratio of iressa IC50 to compound IC50 for human HT-29 cells. Format: functional.

In the case of `CN(C)CCNc1nc(N/N=C/c2ccc(Cl)cc2)nc2ccccc12`, the IC50 in assay [1] worked out at 0.21 µM; in assay [2], 0.37 µM; in assay [3], 3.25 µM; in assay [4] it was 0.97 µM.
Turning to `Cc1ccc(-c2cc(NCCN(C)C)c3ccccc3n2)cc1`, the IC50 in assay [1] was found to be 1.35 µM; in assay [2] it was 2.06 µM; in assay [3] it was 3.52 µM; in assay [4], 4.92 µM.
Consider `CN(C)CCCNc1nc(N/N=C/c2ccc(F)cc2)nc2ccccc12`, for which the IC50 stood at 0.87 µM in assay [1], 0.88 µM in assay [2], 4.09 µM in assay [3] and 2.76 µM in assay [4].
In the same order, the values of `CN(C)CCCNc1nc(N/N=C/c2nccn2Cc2ccc(F)cc2)nc2ccccc12` are 0.63 µM, 2.86 µM, 0.64 µM and 3.51 µM.
Regarding `CN(C)CCNc1nc(N/N=C/c2nccn2Cc2ccccc2)nc2ccccc12`, the IC50 in assay [1] turned out to be 2.62 µM; in assay [2], 9.6 µM; in assay [3], 9.65 µM; in assay [4] it was 4.3 µM.
As to `Fc1ccc(/C=N/Nc2nc(NCCCN3CCOCC3)c3ccccc3n2)cc1`, the IC50 in assay [1] was 2.19 µM; in assay [2], 4.02 µM; in assay [3], 5.87 µM; in assay [4] it was 6.77 µM.
Regarding `CN1CCC(Nc2nc(N/N=C/c3nccn3Cc3cccc(Cl)c3Cl)nc3ccccc23)CC1`, the Ratio IC50 stood at 12 in assay [5] and 224 in assay [6]. Besides, the IC50 in assay [1] is 0.015 µM; in assay [2], 0.53 µM; in assay [3], 0.031 µM; in assay [4], 0.58 µM.
As to `Oc1ccccc1/C=N/Nc1nc(NCCCN2CCOCC2)c2ccccc2n1`, the IC50 in assay [1] was determined as 2.08 µM; in assay [2], 3.83 µM; in assay [3] it was 2.95 µM; in assay [4], 3.21 µM.
With `Clc1cccc(Cn2ccnc2/C=N/Nc2nc(NCCCN3CCOCC3)c3ccccc3n2)c1Cl`, the IC50 in assay [1] stood at 0.72 µM; in assay [2] it was 1.25 µM; in assay [3], 0.91 µM; in assay [4] it was 2.66 µM.
On to `CN(C)CCCNc1nc(N/N=C/c2ccc(F)cc2Cl)nc2ccccc12`, for which the IC50 in assay [1] stood at 1.15 µM; in assay [2], 0.67 µM; in assay [3] it was 1.8 µM; in assay [4], 1.66 µM.
`CN1CCC(Nc2nc(N/N=C/c3ccc(F)cc3Cl)nc3ccccc23)CC1`: the IC50 in assay [1] amounted to 0.27 µM; in assay [2], 1.12 µM; in assay [3], 0.61 µM; in assay [4] it was 1.63 µM.
On the same counts, the results for `CN(C)CCCNc1nc(N/N=C/c2nccn2Cc2cccc(Cl)c2Cl)nc2ccccc12` are 0.36 µM, 0.85 µM, 0.43 µM and 1.17 µM.
In the same order, the values of `Clc1ccc(/C=N/Nc2nc(NCCCN3CCOCC3)c3ccccc3n2)cc1` are 0.61 µM, 1.74 µM, 4 µM and 3.55 µM.
Consider `CN1CCC(Nc2nc(N/N=C/c3nccn3Cc3ccc(F)cc3)nc3ccccc23)CC1`, for which the IC50 was found to be 0.65 µM in assay [1], 0.98 µM in assay [2], 0.21 µM in assay [3] and 0.78 µM in assay [4].
Turning to `CN(C)CCNc1nc(N/N=C/c2ccc(F)cc2Cl)nc2ccccc12`, the IC50 was determined as 0.33 µM in assay [1], 0.68 µM in assay [2], 1.76 µM in assay [3] and 1.68 µM in assay [4].
With `Cc1ccc(Cn2ccnc2/C=N/Nc2nc(NCCCN3CCOCC3)c3ccccc3n2)cc1`, the IC50 was 3.16 µM in assay [1], 3.19 µM in assay [2], 3.76 µM in assay [3] and 3.02 µM in assay [4].
For `CN1CCC(Nc2nc(N/N=C/c3ccc(Cl)cc3)nc3ccccc23)CC1`, the IC50 in assay [1] came to 0.023 µM; in assay [2], 0.17 µM; in assay [3], 0.21 µM; in assay [4], 1.32 µM.
For the compound `C(=N\Nc1nc(NCCCN2CCOCC2)c2ccccc2n1)/c1nccn1Cc1ccccc1`, the IC50 in assay [1] stood at 2.84 µM; in assay [2], 4.8 µM; in assay [3] it was 4.03 µM; in assay [4], 3.96 µM.
In the case of `CN(C)CCCNc1nc(N/N=C/c2ccc(Cl)cc2)nc2ccccc12`, the half-maximal inhibitory concentration (IC50) in assay [1] is 0.27 µM; in assay [2] it was 0.55 µM; in assay [3], 1.49 µM; in assay [4], 1.73 µM.
`CN(C)CCCNc1nc(N/N=C/c2nccn2Cc2ccccc2)nc2ccccc12`: the IC50 was 1.98 µM in assay [1], 4.04 µM in assay [2], 4.67 µM in assay [3] and 2.13 µM in assay [4].
Regarding `CN(C)CCNc1nc(N/N=C/c2ccc(F)cc2)nc2ccccc12`, the IC50 turned out to be 1.53 µM in assay [1], 1.82 µM in assay [2], 5.68 µM in assay [3] and 4.1 µM in assay [4].
As to `Fc1ccc(Cn2ccnc2/C=N/Nc2nc(NCCCN3CCOCC3)c3ccccc3n2)cc1`, the IC50 in assay [1] was 0.93 µM; in assay [2] it was 2.21 µM; in assay [3], 2.47 µM; in assay [4] it was 1.92 µM.
Turning to `COc1ccc(OC)c(/C=N/Nc2nc(NC3CCN(C)CC3)c3ccccc3n2)c1`, the IC50 in assay [1] is 2.83 µM; in assay [2], 7.17 µM; in assay [3], 4.76 µM; in assay [4], 4.24 µM.
As for `CN(C)CCNc1nc(N/N=C/c2nccn2Cc2ccc(F)cc2)nc2ccccc12`, the IC50 in assay [1] amounted to 0.93 µM; in assay [2], 3.06 µM; in assay [3], 1.05 µM; in assay [4], 2.42 µM.
For `CN1CCC(Nc2nc(N/N=C/c3ccc(F)cc3)nc3ccccc23)CC1`, the concentration for half-maximal inhibition (IC50) was 1.41 µM in assay [1], 1.95 µM in assay [2], 2.64 µM in assay [3] and 1.76 µM in assay [4].
As for `Cc1ccc(Cn2ccnc2/C=N/Nc2nc(NCCN(C)C)c3ccccc3n2)cc1`, the IC50 in assay [1] is 1.41 µM; in assay [2], 2.98 µM; in assay [3], 4.2 µM; in assay [4] it was 2.75 µM.
As for `Cc1ccc(Cn2ccnc2/C=N/Nc2nc(NCCCN(C)C)c3ccccc3n2)cc1`, the IC50 came out at 2.44 µM in assay [1], 3.68 µM in assay [2], 1.69 µM in assay [3] and 2.6 µM in assay [4].
Take `Oc1cccc(/C=N/Nc2nc(NCCCN3CCOCC3)c3ccccc3n2)c1`: the IC50 in assay [1] came out at 6.32 µM; in assay [2], 6.49 µM; in assay [3] it was 4.67 µM; in assay [4] it was 4.9 µM.
In the same order, the values of `CN1CCC(Nc2nc(N/N=C/c3nccn3Cc3ccccc3)nc3ccccc23)CC1` are 0.75 µM, 1.42 µM, 1.03 µM and 1.38 µM.
As for `Cc1ccc(Cn2ccnc2/C=N/Nc2nc(NC3CCN(C)CC3)c3ccccc3n2)cc1`, the IC50 came out at 0.2 µM in assay [1], 1.23 µM in assay [2], 0.77 µM in assay [3] and 0.96 µM in assay [4].
On the same counts, the results for `CN(C)CCNc1nc(N/N=C/c2nccn2Cc2cccc(Cl)c2Cl)nc2ccccc12` are 0.26 µM, 0.67 µM, 0.87 µM and 1.85 µM.

For orientation: IC50 means the concentration at which inhibition is half-maximal. Read a low IC50 as greater potency in that assay.
